Assay results published in ChEMBL document CHEMBL5550219, “Distinct Amino Acid-Based PROTACs Target Oncogenic Kinases for Degradation in Non-Small Cell Lung Cancer (NSCLC)” (J Med Chem, 2024).
The source made the active and inactive calls. No cut-off for these calls is given here.

Columns and labels:
NCI-H3122 [1] = assay: Induction of cell cycle arrest at S phase in human NCI-H3122 cells at 10 uM incubated for 48 hrs by flow cytometry (reference value: 25.7 +/- 0.4 %); assay type: functional
NCI-H1975 [2] = assay: Induction of cell cycle arrest at G2 phase in human NCI-H1975 cells at 20 uM incubated for 72 hrs by flow cytometry (reference value: 43.4 +/- 1.5 %); assay type: functional
[3] = Cmax in mouse at 50 mg/kg, ip measured for 12 hrs by HPLC analysis; assay type: ADME, organism-based; settings: in vivo
A549 = assay: Effect on wild-type EGFR expression in human A549 cells upto 20 uM incubated for 72 hrs by immunoblot analysis; assay type: functional, cell-based
NCI-H1975 [4] = assay: Inhibition of cell viability in human NCI-H1975 cells incubated for 48 to 72 hrs by CCK8 assay
[5] = […] measured for 12 hrs by HPLC analysis; assay type: ADME, organism-based; settings: in vivo
NCI-H3122 [6] = assay: Inhibition of cell viability in human NCI-H3122 cells incubated for 48 to 72 hrs by CCK8 assay
HEK-293T = assay: Inhibition of cell viability in HEK293T cells upto 20 uM incubated for 48 hrs by CCK8 assay; assay type: toxicity, cell-based; settings: human
NCI-H1975 [7] = assay: Induction of cell cycle arrest at G2 phase in human NCI-H1975 cells at 10 uM incubated for 72 hrs by flow cytometry (reference value: 43.4 +/- 1.5 %); assay type: functional
NCI-H3122 [8] = assay: Induction of apoptosis in human NCI-H3122 cells assessed as increase in late apoptotic cells incubated for 48 hrs by Annexin V-FITC/PI staining based flow cytometry; assay type: functional, cell-based; settings: dose 5-10 µM
NCI-H1975 [9] = assay: Inhibition of cell viability in human NCI-H1975 cells harboring sgGID4 incubated for 72 hrs by CCK8 assay; assay type: functional, cell-based
[10] = AUC (0 to t) in mouse at 50 mg/kg, ip measured for 12 hrs by HPLC analysis; assay type: ADME, organism-based; settings: in vivo
[11] = AUC (0 to t) in mouse at 2 mg/kg, iv measured for 12 hrs by HPLC analysis; assay type: ADME, organism-based; settings: in vivo
SK-N-BE(2) = assay: Effect on wild-type ALK in human SK-N-BE(2) cells upto 20 uM incubated for 48 hrs by immunoblot analysis; assay type: functional, cell-based
NCI-H1975 [12] = assay: Induction of apoptosis in human NCI-H1975 cells assessed as increase in late apoptotic cells incubated for 72 hrs by Annexin V-FITC/PI staining based flow cytometry; assay type: functional, cell-based; settings: dose 10-20 µM
NCI-H1975 [13] = assay: Induction of cell cycle arrest at S phase in human NCI-H1975 cells at 20 uM incubated for 72 hrs by flow cytometry (reference value: 12.1 +/- 0.7 %); assay type: functional
SH-SY5Y = assay: Effect on ALK F1174L mutant in human SH-SY5Y cells upto 20 uM incubated for 48 hrs by immunoblot analysis; assay type: functional, cell-based
NCI-H1975 [14] = assay: Induction of cell cycle arrest at G1 phase in human NCI-H1975 cells at 20 uM incubated for 72 hrs by flow cytometry (reference value: 44.5 +/- 1.5 %); assay type: functional
NCI-H3122 [15] = assay: Induction of cell cycle arrest at S phase in human NCI-H3122 cells at 5 uM incubated for 48 hrs by flow cytometry (reference value: 25.7 +/- 0.4 %); assay type: functional
NCI-H3122 [16] = assay: Induction of cell cycle arrest at G2 phase in human NCI-H3122 cells at 5 uM incubated for 48 hrs by flow cytometry (reference value: 9.4 +/- 0.5 %); assay type: functional
NCI-H3122 [17] = assay: Induction of cell cycle arrest at G1 phase in human NCI-H3122 cells at 5 uM incubated for 48 hrs by flow cytometry (reference value: 64.9 +/- 0.6 %); assay type: functional
NCI-H1975 [18] = assay: Induction of apoptosis in human NCI-H1975 cells assessed as increase in early apoptotic cells incubated for 72 hrs by Annexin V-FITC/PI staining based flow cytometry; assay type: functional, cell-based; settings: dose 10-20 µM
[19] = Half life in mouse at 50 mg/kg, ip measured for 12 hrs by HPLC analysis; assay type: ADME, organism-based; settings: in vivo
NCI-H3122 [20] = assay: Induction of cell cycle arrest at G2 phase in human NCI-H3122 cells at 10 uM incubated for 48 hrs by flow cytometry (reference value: 9.4 +/- 0.5 %); assay type: functional
NCI-H1975 [21] = assay: Induction of cell cycle arrest at S phase in human NCI-H1975 cells at 10 uM incubated for 72 hrs by flow cytometry (reference value: 12.1 +/- 0.7 %); assay type: functional
NCI-H1299 = assay: Effect on wild-type EGFR expression in human NCI-H1299 cells upto 20 uM incubated for 72 hrs by immunoblot analysis; assay type: functional, cell-based
PC-9 = assay: Effect on EGFR del19 mutant expression in human PC-9 cells upto 20 uM incubated for 72 hrs by immunoblot analysis; assay type: functional, cell-based
NCI-H3122 [22] = assay: Induction of cell cycle arrest at G1 phase in human NCI-H3122 cells at 10 uM incubated for 48 hrs by flow cytometry (reference value: 64.9 +/- 0.6 %); assay type: functional
[23] = Tmax in mouse at 50 mg/kg, ip measured for 12 hrs by HPLC analysis; assay type: ADME, organism-based; settings: in vivo
[24] = Tmax in mouse at 2 mg/kg, iv measured for 12 hrs by HPLC analysis; assay type: ADME, organism-based; settings: in vivo
[25] = Cmax in mouse at 2 mg/kg, iv measured for 12 hrs by HPLC analysis; assay type: ADME, organism-based; settings: in vivo
NCI-H3122 [26] = assay: Inhibition of cell viability in human NCI-H3122 cells harboring sgGID4 incubated for 48 hrs by CCK8 assay; assay type: functional, cell-based
NCI-H1975 [27] = assay: Induction of cell cycle arrest at G1 phase in human NCI-H1975 cells at 10 uM incubated for 72 hrs by flow cytometry (reference value: 44.5 +/- 1.5 %); assay type: functional
NCI-H3122 [28] = assay: Induction of apoptosis in human NCI-H3122 cells assessed as increase in early apoptotic cells incubated for 48 hrs by Annexin V-FITC/PI staining based flow cytometry; assay type: functional, cell-based; settings: dose 5-10 µM
[29] = Half life in mouse at 2 mg/kg, iv measured for 12 hrs by HPLC analysis; assay type: ADME, organism-based; settings: in vivo

## COc1cc(N2CCN(C(=O)CCOCCOCCOCCNC(=O)[C@@H]3CCCN3)CC2)ccc1Nc1ncc(Cl)c(Nc2ccccc2P(C)(C)=O)n1
NCI-H3122 [1]
  Activity: 3.9%
NCI-H1975 [2]
  Activity: 15.9%
[3]
  Cmax: 33000 ng/mL
A549
  Activity: inactive
NCI-H1975 [4]
  IC50: 8.8 µM
[5]
  bioavailability: 53.2%
NCI-H3122 [6]
  IC50: 0.16 µM
HEK-293T
  Activity: Non-Toxic
NCI-H1975 [7]
  Activity: 32.5%
NCI-H3122 [8]
  Activity: Dose-Dependent Effect
NCI-H1975 [9]
  inhibition: inactive
[10]
  AUC(0-t) at 12 h: 80800 ng·h/mL
[11]
  AUC(0-t) at 12 h: 6080 ng·h/mL
SK-N-BE(2)
  Activity: inactive
NCI-H1975 [12]
  Activity: Dose-Dependent Effect
NCI-H1975 [13]
  Activity: 5.7%
SH-SY5Y
  Activity: inactive
NCI-H1975 [14]
  Activity: 78.4%
NCI-H3122 [15]
  Activity: 7.3%
NCI-H3122 [16]
  Activity: 8.1%
NCI-H3122 [17]
  Activity: 84.2%
NCI-H1975 [18]
  Activity: Dose-Dependent Effect
[19]
  half-life: 5.18 h
NCI-H3122 [20]
  Activity: 5.5%
NCI-H1975 [21]
  Activity: 10.2%
NCI-H1299
  Activity: inactive
PC-9
  Activity: inactive
NCI-H3122 [22]
  Activity: 90.4%
[23]
  Tmax: 0.5 h
[24]
  Tmax: 4.98 min
[25]
  Cmax: 3720 ng/mL
NCI-H3122 [26]
  inhibition: inactive
NCI-H1975 [27]
  Activity: 57.3%
NCI-H3122 [28]
  Activity: Dose-Dependent Effect
[29]
  half-life: 2.87 h
